The target in one assay is T1, ABL1(E255K) (Homo sapiens, UniProt P00519, E255K).
T1 construct: made in house; host or cells: T7 bacteriophage display
The assay can be described thus: Phage-display competition binding assay (Kd), ABL1(E255K). An excerpt: (§1) The term “ND” represents non-determined values.

The target of a further assay is T2, ABL1(DKIN) (Homo sapiens, UniProt P00519).
T2 construct: ABL1(DKIN); fused on or other part: Fused to T7 bacteriophage particles (phage display)
The assay can be described thus: Phage-display competition binding assay (Kd), ABL1(DKIN).
Excerpt: as §1

For a further assay, the target named is T3, ABL1(T3151) (Homo sapiens, UniProt P00519, T315I).
T3 construct: made in house; host or cells: T7 bacteriophage display
The assay is described as follows: Phage-display competition binding assay (Kd), ABL1(T3151).
Excerpt: as §1

The next assay concerns the target T4, ABL1(H396P) (Homo sapiens, UniProt P00519, H396P).
T4 construct: made in house; host or cells: T7 bacteriophage display
The assay is described as follows: Phage-display competition binding assay (Kd), ABL1(H396P).
Excerpt: as §1

The next assay addresses T5, ABL1(Y253F) (Homo sapiens, UniProt P00519, Y253F).
T5 construct: made in house; host or cells: T7 bacteriophage display
The assay is described as follows: Phage-display competition binding assay (Kd), ABL1(Y253F).
Excerpt: as §1

The target of another assay is T6, ABL1(Q252H) (Homo sapiens, UniProt P00519, Q252H).
T6 construct: made in house; host or cells: T7 bacteriophage display
The assay is described as follows: Phage-display competition binding assay (Kd), ABL1(Q252H).
Excerpt: as §1

The next assay addresses T7, ABL1(E274K) (Homo sapiens, UniProt P00519, E255K).
T7 construct: made in house; host or cells: T7 bacteriophage display
The assay is described as follows: Phage-display competition binding assay (Kd), ABL1(E274K).
Excerpt: as §1

Molecules are shown by their SMILES.

As to `CC(C)(C)c1cc(NC(=O)Nc2ccc(NC(=O)c3ccc4cccnc4n3)cc2)no1` [Compound N144], the dissociation constant Kd at ABL1(E255K) was over 10 µM.
Still for that read-out and setting: with `CC(C)(C)c1cc(NC(=O)Nc2ccc(NC(=O)c3ccc4ccccc4n3)cc2)no1` [Compound N143] the figure was over 10 µM.
For `CC(C)(C)c1cc(NC(=O)Nc2ccc(Br)cc2C(F)(F)F)no1` [Compound A41], on ABL1(DKIN), the Kd was over 10 µM.
`CC(C)(C)c1cc(NC(=O)Nc2ccc(NC(=O)c3c4c(nc5ccccc35)CCCC4)cc2)no1` [Compound N140] displayed a Kd at ABL1(T3151) of over 10 µM.
`CC(C)(C)c1cc(NC(=O)Nc2ccc(NC(=O)Cc3sc(-c4ccc(Cl)cc4)nc3-c3ccccc3)cc2)no1` [Compound N66] had a Kd on ABL1(DKIN) of 0.1 to 1 µM.
Turning to `CC(C)(C)c1cc(NC(=O)Nc2ccc(OCCc3ccccn3)cc2)no1` [Compound G27], the Kd at ABL1(E255K) is over 10 µM; on ABL1(T3151), 1 to 10 µM.
`COc1ccc(NC(=O)Nc2cc(C(C)(C)C)no2)cc1` [Compound A30] gave a Kd on ABL1(DKIN) of over 10 µM.
On to `COc1cc2nc(Cl)nc(Nc3ccc(NC(=O)Nc4cc(C(C)(C)C)on4)cc3)c2cc1OC` [Compound O1, 1-(4-(2-chloro-6,7-dimethoxyquinazolin-4-ylamino)phenyl)-3-(5-tert-butylisoxazol-3-yl)urea], for which the Kd at ABL1(H396P) is over 10 µM; at ABL1(Y253F), over 10 µM; at ABL1(Q252H) it was 1 to 10 µM; on ABL1(E255K), over 10 µM; on ABL1(T3151) it was 1 to 10 µM.
Take `Cc1ccc(C(=O)Nc2ccc(NC(=O)Nc3nc(C(C)(C)C)cs3)cc2)cc1` [Compound N135]: the Kd at ABL1(E255K) and on ABL1(T3151) was over 10 µM each time.
Take `COC(=O)c1cccc(Sc2ncc(NC(=O)Nc3cc(C(C)(C)C)on3)s2)c1` [Compound O8]: the Kd at ABL1(T3151) is 0.1 to 1 µM.
`CC(C)(C)c1cc(NC(=O)Nc2ccc(OCCCc3ccncc3)cc2)no1` [Compound G1, 1-(4-(3-(pyridin-4-yl)propoxy)phenyl)-3-(5-tert-butylisoxazol-3-yl)urea] showed a Kd on ABL1(E255K) of over 10 µM.
In the case of `CC(C)(C)c1cc(NC(=O)Nc2ccc(Br)cc2C(F)(F)F)on1` [Compound A26], on ABL1(DKIN), the Kd was over 10 µM.
The compound `CC(C)(C)c1cc(NC(=O)Nc2ccc(C(=O)Nc3nccnc3N)cc2)no1` [Compound N157] had a Kd at ABL1(E274K) of over 10 µM.
The compound `Cc1[nH]c(C(=O)Nc2ccc(NC(=O)Nc3cc(C(C)(C)C)on3)cc2)c(C)c1CCC(=O)O` [Compound N39] had a Kd on ABL1(E255K) of over 10 µM.
On the same count and under the same terms, with `CC(C)(C)c1csc(NC(=O)Nc2ccc(OCc3ccccc3)cc2)n1` [Compound G49] the figure was over 10 µM.
The compound `Cc1ccc(-n2nc(C(C)(C)C)cc2NC(=O)Nc2ccc(Br)cc2C(F)(F)F)cc1` [Compound H13] showed a Kd on ABL1(DKIN) of over 10 µM.
In the case of `CC(C)(C)c1cc(NC(=O)Nc2ccc(Cl)c(C(F)(F)F)c2)no1` [Compound A1, 1-(5-tent-butylisoxazol-3-yl)-3-(4-chloro-3-(trifluoromethyl)phenyl)urea], at ABL1(DKIN), the Kd is over 10 µM.
Turning to `Cc1ncccc1C(=O)Nc1ccc(NC(=O)Nc2cc(C(C)(C)C)on2)cc1` [Compound N145], at ABL1(E255K), the Kd is over 10 µM.
`CC(C)(C)c1cc(NC(=O)Nc2ccc(Cl)cc2)on1` [Compound A32] registered a Kd on ABL1(DKIN) of over 10 µM.
Take `COc1cc2ncnc(Nc3ccc(NC(=O)Nc4cc(C(C)(C)C)on4)cc3)c2cc1OC` [Compound O5]: the Kd was 0.1 to 1 µM at ABL1(H396P); 0.1 to 1 µM on ABL1(Y253F); 0.1 to 1 µM on ABL1(Q252H); 0.1 to 1 µM on ABL1(E255K); under 0.1 µM on ABL1(T3151); under 0.1 µM at ABL1(DKIN).
Turning to `CSc1ccc(NC(=O)Nc2cc(C(C)(C)C)no2)cc1` [Compound A39], the Kd at ABL1(DKIN) was over 10 µM.
`CC(C)(C)c1cc(NC(=O)Nc2ccc(OCCc3ccncc3)cc2)no1` [Compound G22] displayed a Kd at ABL1(E255K) of over 10 µM.
For `CC(C)(C)c1cc(NC(=O)Nc2ccc(NC(=O)c3cccc4nc5cc(O)cc(O)c5cc34)cc2)no1` [Compound N139], the Kd at ABL1(T3151) was over 10 µM.
On to `Cc1ccc(C(=O)Nc2ccc(NC(=O)Nc3cc(C(C)(C)C)on3)cc2)cn1` [Compound N142], for which the Kd on ABL1(E255K) is over 10 µM.
On the same count and under the same terms, for `CC(C)(C)c1cc(NC(=O)Nc2ccc(NC(=O)c3ccnc4ccccc34)cc2)no1` [Compound N141] the value was over 10 µM.

These data come from patent US20100173917A1, “UREA DERIVATIVES AS ABL MODULATORS” (Ambit Biosciences Corporation, priority 2003, published 2010).
